Measured values reported in US7632972B2, “Compounds and methods for treatment of cancer and modulation of programmed cell death for melanoma and other cancer cells” (The Board of Trustees of the University of Illionis, priority 2003, dated 2009).

Tests used:
Assay type in all cases: cell-based, human
[1] = test system: SNB-19; assay: NCI 60 cell line screen (SRB), CNS Cancer
From the text: (§1) The operation of this screen utilizes 60 different human tumor cell lines, representing leukemia, melanoma and cancers of the lung, colon, brain, ovary, breast, prostate, and kidney. The aim is to prioritize for further evaluation, synthetic compounds or natural product samples showing selective growth inhibition or cell killing of particular tumor cell lines. This screen is unique in that the complexity of a 60 cell line dose response produced by a given compound results in a biological response pattern which can be utilized in pattern recognition algorithms. Using these algorithms, it is possible to assign a putative mechanism of action to a test compound, or to determine that the response pattern is unique and not similar to that of any of the standard prototype compounds included in the NCl database (see DTP Overview tab). In addition, following characterization of various cellular molecular targets in the 60 cell lines, it may be possible to select compounds most likely to interact with a specific molecular target.
(§2) The human tumor cell lines of the cancer screening panel are grown in RPMI 1640 medium containing 5% fetal bovine serum and 2 mM L-glutamine. For a typical screening experiment, cells are inoculated into 96 well microtiter plates in 100 μL at plating densities ranging from 5,000 to 40,000 cells/well depending on the doubling time of individual cell lines. After cell inoculation, the microtiter plates are incubated at 37° C., 5% CO2, 95% air and 100% relative humidity for 24 h prior to addition of experimental drugs.
(§3) After 24 h, two plates of each cell line are fixed in situ with TCA, to represent a measurement of the cell population for each cell line at the time of drug addition (Tz). Experimental drugs are solubilized in dimethyl sulfoxide at 400-fold the desired final maximum test concentration and stored frozen prior to use. At the time of drug addition, an aliquot of frozen concentrate is thawed and diluted to twice the desired final maximum test concentration with complete medium containing 50 μg/ml gentamicin. Additional four, 10-fold or ½ log serial dilutions are made to provide a total of five drug concentrations plus control. Aliquots of 100 μl of these different drug dilutions are added to the appropriate microtiter wells already containing 100 μl of medium, resulting in the required final drug concentrations.
(§4) Following drug addition, the plates are incubated for an additional 48 h at 37° C., 5% CO2, 95% air, and 100% relative humidity. For adherent cells, the assay is terminated by the addition of cold TCA. Cells are fixed in situ by the gentle addition of 50 μl of cold 50% (w/v) TCA (final concentration, 10% TCA) and incubated for 60 minutes at 4° C. The supernatant is discarded, and the plates are washed five times with tap water and air dried. Sulforhodamine B (SRB) solution (100 μl) at 0.4% (w/v) in 1% acetic acid is added to each well, and plates are incubated for 10 minutes at room temperature. After staining, unbound dye is removed by washing five times with 1% acetic acid and the plates are air dried. Bound stain is subsequently solubilized with 10 mM trizma base, and the absorbance is read on an automated plate reader at a wavelength of 515 nm. For suspension cells, the methodology is the same except that the assay is terminated by fixing settled cells at the bottom of the wells by gently adding 50 μl of 80% TCA (final concentration, 16% TCA). Using the seven absorbance measurements [time zero, (Tz), control growth, (C), and test growth in the presence of drug at the five concentration levels (Ti)], the percentage growth is calculated at each of the drug concentrations levels. Percentage growth inhibition is calculated as: [(Ti−Tz)/(C−Tz)]×100 for concentrations for which Ti>/=Tz [(Ti−Tz)/Tz]×100 for concentrations for which Ti<Tz.
(§5) Three dose response parameters are calculated for each experimental agent. […]

[2] = test system: SNB-75; assay: NCI 60 cell line screen (SRB), CNS Cancer
From the text: as §1, §2, §3, §4, §5

[3] = test system: SF-295; assay: NCI 60 cell line screen (SRB), CNS Cancer
From the text: as §1, §2, §3, §4, §5

[4] = test system: SF-268; assay: NCI 60 cell line screen (SRB), CNS Cancer
From the text: as §1, §2, §3, §4, §5

[5] = test system: U251; assay: NCI 60 cell line screen (SRB), CNS Cancer
From the text: as §1, §2, §3, §4, §5

[6] = test system: MOLT-4; assay: NCI 60 cell line screen (SRB), Leukemia
From the text: as §1, §2, §3, §4, §5

[7] = test system: RPMI-8226; assay: NCI 60 cell line screen (SRB), Leukemia
From the text: as §1, §2, §3, §4, §5

[8] = test system: CCRF-CEM; assay: NCI 60 cell line screen (SRB), Leukemia
From the text: as §1, §2, §3, §4, §5

[9] = test system: K-562; assay: NCI 60 cell line screen (SRB), Leukemia
From the text: as §1, §2, §3, §4, §5

## COc1cccc(CCNC(=O)CC(c2ccccc2)(c2ccccc2)c2ccccc2)c1 [Compound Z3]
[1]; SNB-19
  GI50: 90.1 µM
  TGI: >1.00E−04
[1]; SNB-19, Log10 Concentration −4.0
  Percent Growth: 48%
[1]; SNB-19, Log10 Concentration −5.0
  Percent Growth: 92%
[1]; SNB-19, Log10 Concentration −6.0
  Percent Growth: 92%
[1]; SNB-19, Log10 Concentration −7.0
  Percent Growth: 107%
[1]; SNB-19, Log10 Concentration −8.0
  Percent Growth: 97%
[1]; SNB-19, read-out: LC50 (the source's name)
  CC50: > 100 µM
[2]; SNB-75
  GI50: > 100 µM
  TGI: >1.00E−04
[2]; SNB-75, Log10 Concentration −4.0
  Percent Growth: 96%
[2]; SNB-75, Log10 Concentration −5.0
  Percent Growth: 118%
[2]; SNB-75, Log10 Concentration −6.0
  Percent Growth: 113%
[2]; SNB-75, Log10 Concentration −7.0
  Percent Growth: 117%
[2]; SNB-75, Log10 Concentration −8.0
  Percent Growth: 94%
[2]; SNB-75, read-out: LC50 (the source's name)
  CC50: > 100 µM
[3]; SF-295
  GI50: 4.36 µM
  TGI: >1.00E−04
[3]; SF-295, Log10 Concentration −4.0
  Percent Growth: 15%
[3]; SF-295, Log10 Concentration −5.0
  Percent Growth: 27%
[3]; SF-295, Log10 Concentration −6.0
  Percent Growth: 91%
[3]; SF-295, Log10 Concentration −7.0
  Percent Growth: 113%
[3]; SF-295, Log10 Concentration −8.0
  Percent Growth: 100%
[3]; SF-295, read-out: LC50 (the source's name)
  CC50: > 100 µM
[4]; SF-268
  GI50: 15 µM
  TGI: >1.00E−04
[4]; SF-268, Log10 Concentration −4.0
  Percent Growth: 38%
[4]; SF-268, Log10 Concentration −5.0
  Percent Growth: 53%
[4]; SF-268, Log10 Concentration −6.0
  Percent Growth: 87%
[4]; SF-268, Log10 Concentration −7.0
  Percent Growth: 97%
[4]; SF-268, Log10 Concentration −8.0
  Percent Growth: 90%
[4]; SF-268, read-out: LC50 (the source's name)
  CC50: > 100 µM
[5]; U251
  GI50: 4.85 µM
  TGI: 5.56E−05
[5]; U251, Log10 Concentration −4.0
  Percent Growth: −10%
[5]; U251, Log10 Concentration −5.0
  Percent Growth: 29%
[5]; U251, Log10 Concentration −6.0
  Percent Growth: 96%
[5]; U251, Log10 Concentration −7.0
  Percent Growth: 107%
[5]; U251, Log10 Concentration −8.0
  Percent Growth: 99%
[5]; U251, read-out: LC50 (the source's name)
  CC50: > 100 µM
[6]; MOLT-4
  GI50: 6.01 µM
  TGI: >1.00E−04
[6]; MOLT-4, Log10 Concentration −4.0
  Percent Growth: 33%
[6]; MOLT-4, Log10 Concentration −5.0
  Percent Growth: 34%
[6]; MOLT-4, Log10 Concentration −6.0
  Percent Growth: 107%
[6]; MOLT-4, Log10 Concentration −7.0
  Percent Growth: 123%
[6]; MOLT-4, Log10 Concentration −8.0
  Percent Growth: 116%
[6]; MOLT-4, read-out: LC50 (the source's name)
  CC50: > 100 µM
[7]; RPMI-8226
  GI50: 4.98 µM
  TGI: >1.00E−04
[7]; RPMI-8226, Log10 Concentration −4.0
  Percent Growth: 24%
[7]; RPMI-8226, Log10 Concentration −5.0
  Percent Growth: 29%
[7]; RPMI-8226, Log10 Concentration −6.0
  Percent Growth: 98%
[7]; RPMI-8226, Log10 Concentration −7.0
  Percent Growth: 100%
[7]; RPMI-8226, Log10 Concentration −8.0
  Percent Growth: 92%
[7]; RPMI-8226, read-out: LC50 (the source's name)
  CC50: > 100 µM
[8]
  GI50: 8.16 µM
  TGI: >1.00E−04
[8]; Log10 Concentration −4.0
  Percent Growth: 34%
[8]; Log10 Concentration −5.0
  Percent Growth: 48%
[8]; Log10 Concentration −6.0
  Percent Growth: 74%
[8]; Log10 Concentration −7.0
  Percent Growth: 94%
[8]; Log10 Concentration −8.0
  Percent Growth: 62%
[8]; read-out: LC50 (the source's name)
  CC50: > 100 µM
[9]; K-562
  GI50: 6.03 µM
  TGI: >1.00E−04
[9]; K-562, Log10 Concentration −4.0
  Percent Growth: 32%
[9]; K-562, Log10 Concentration −5.0
  Percent Growth: 36%
[9]; K-562, Log10 Concentration −6.0
  Percent Growth: 100%
[9]; K-562, Log10 Concentration −7.0
  Percent Growth: 100%
[9]; K-562, Log10 Concentration −8.0
  Percent Growth: 102%
[9]; K-562, read-out: LC50 (the source's name)
  CC50: > 100 µM
